A value given as a limit tells only on which side of the number the result lay.

What all share (type): biochemical
In one assay the target is T1, recombinant human MMP-3 (Homo sapiens, UniProt P08254).
T1 construct: purchased R&D Systems
The experiment in a line: MMP-3 enzyme assay (FRET substrate), selectivity versus MMP-12. To be noted: fold difference in Ki for MMP-3 compared to MMP-12. How it is done: The activity was measured by a continuous detection of increased fluorescence intensity during 12 min. The substrate consisted of a peptide with a fluorescent donor 7-methoxycoumarin (Mca) and a quenching acceptor 2,4-dinitrophenyl group (Dpa), typically Mca-Arg-Pro-Lys-Pro-Val-Glu-Nval-Trp-Arg-Lys(Dnp)-NH2 (R&D Systems, ES002). The cleavage site by MMP-3 is the peptide bond between Glu and Nval. The compounds were tested at a range of concentrations, the enzyme concentration (MMP-3) was fixed at 400 ng/ml and the substrate concentrations was 10 μM. The MMP-3 assay used employs recombinant human MMP-3 (supplied by R&D Systems) in an assay buffer of 50 mM Tris-HCl, 200 mM calcium acetate at pH=7.5. The MMP-3 enzyme was preactivated by dilution to 0.119 mg/ml into 1 mM APMA (p-aminophenylmercuric acetate) followed by incubation at 37° C. for 24 hours. The substrate was prepared at a 100 μM stock solution in DMSO and a 96-well polypropylene plate was used for the reaction mixtures. To each well of the plate was added assay buffer 90.0 μl, enzyme (MMP-3) 0.3 μl and inhibitor 1 μl. The reactions were started by addition of substrate, 10 μl/well, to a total volume of 100 μl/well. The total concentration of DMSO was not above 1%. The assay was performed at ambient temperature. Product fluorescence ([…]) was monitored with a Thermo Labsystems Fluoroskan Ascent plate reader. The Ki was determined by Prism Software.
(§1) The selectivity for MMP-12 over MMP-3 and TACE was evaluated for a representative selection of the compounds of the invention by comparing the Ki figures obtained when tested in the corresponding enzyme assays, such as those described above. The selectivity is presented as the fold difference in Ki for TACE and MMP-3 compared to MMP-12 and is calculated as the ratio Ki(TACE)/KiMMP-12 and Ki(MMP-3)/KiMMP-12 respectively.

Another assay addresses T2, recombinant human TACE (Homo sapiens, UniProt P78536).
T2 construct: purchased R&D Systems
The assay can be described thus: TACE enzyme assay (FRET substrate), selectivity versus MMP-12. As to conditions: fold difference in Ki for TACE compared to MMP-12. How it is done: The activity was measured by a continuous detection of increased fluorescence intensity during 12 min. The substrate consisted of a peptide with a fluorescent donor 7-methoxycoumarin (Mca) and a quenching acceptor 2,4-dinitrophenyl group (Dpa), typically Mca-P-L-A-Q-A-V-Dpa-R-S-S-S-R-NH2 (R&D Systems, ES003). The cleavage site by TACE is the peptide bond between Ala and Val. The compounds were tested at a range of concentrations while the enzyme and substrate concentrations were fixed. A typical TACE assay employs recombinant human TACE (supplied by R&D Systems) in an assay buffer (25 mM Tris-HCl, pH=9.0, 2.5 μM ZnCl2, 0.005% Brij 35). The enzyme concentration (TACE) used was 100 ng/ml, the substrate was prepared at a 100 μM stock solution in DMSO and a 96-well polypropylene plate was used for the reaction mixtures. To each well of the plate was added assay buffer 90.0 μl, enzyme (TACE) 0.09 μl and inhibitor 1 μl. The reactions were started by addition of substrate 10 μl/well, giving a substrate concentration of 10 μM and a total volume of 100 μl/well. The total concentration of DMSO was not above 1%. The assay was performed at ambient temperature. Product fluorescence ([…]) was monitored with a Thermo Labsystems Fluoroskan Ascent plate reader. The Ki was determined by Prism Software.
as §1

The next assay addresses T3, recombinant human MMP-12 (Homo sapiens, UniProt P39900).
T3 construct: purchased R&D Systems; host or cells: mouse myeloma cell line NS-40 (so in the source)
The experiment in a line: MMP-12 enzyme assay (FRET substrate). How it is done:
A typical MMP-12 enzyme assay employs recombinant human MMP-12 catalytic domain expressed and purified as described by Parkar A. A. et al, (2000), Protein Expression and Purification, 20:152. The purified enzyme can be used to monitor inhibitors of activity as follows: MMP-12 (50 ng/ml final concentration) is incubated for 60 minutes at room temperature with the synthetic substrate Mac-Pro-Cha-Gly-Nva-His-Ala-Dpa-NH2 in assay buffer (0.1M “Tris-HCl” (trade mark) buffer, pH 7.3 containing O.1M NaCl, 20 mM CaCl2, 0.020 mM ZnCl and 0.05% (w/v) “Brij 35” (trade mark) detergent) in the presence (5 concentrations) or absence of inhibitors. Activity is determined by measuring the fluorescence at λex 320 nm and λem 405 nm. Percent inhibition is calculated as follows: % Inhibition is equal to the (Fluorescenceplus inhibitor−Fluorescencebackground); divided by the (Fluorescenceminus inhibitor−Fluorescencebackground);
A favoured assay employs full length recombinant human MMP-12, amino acid residues 1 to 470 (Shapiro et al 1993, J Biol Chem 268:23824-23829) expressed in mouse myeloma cell line NS-40. The purified rhMMP-12 typically has the N terminal sequence L17PLNSSTSLE and an SDS-PAGE apparent molecular mass of approx. 56 kDa. Such proteins are available from R&D Systems, USA as a lyophilised 0.2 um filtered solution of 25 mM MES, 0.15M NaCl, 10 mMCaCl2, 0.15% Brij 35, pH 5.5. Auto-activation of the rhMMP-12 can be achieved by dilution to 0.05 mg/ml into TCNB buffer (50 mMTris, 10 mM CaCl2, 0.15M NaCl, 0.05% Brij 35, pH 7) and incubation at 37 degrees for 30 hours. A preferred buffer for MMP work is 50 mM Tris.HCl, pH 7.5, 200 mM Ca acetate.
Suitable FRET substrates include (7-methoxycoumarin-4-yl)acetyl-Pro-Leu-Gly-Leu-(3-(2,4-dinitrophenoyl)-L-2,3-diaminopropionyl)-Ala-Arg-NH2, commercially available from R&D Systems, USA. Typical specific activities are >500 picomol/min/ug, with rhMMP-12 measured with 10 uM of this substrate, 20 ng activated enzyme in 100 ul TCNB buffer at room temperature.
An alternative general MMP substrate is Dnp-PLGLWAD-R-NH2.
Category A indicates ≦50 nM inhibition, category B indicates 51-200 nM inhibition and category C indicates >200 nM: […]

T3 sequence (P39900 106-470): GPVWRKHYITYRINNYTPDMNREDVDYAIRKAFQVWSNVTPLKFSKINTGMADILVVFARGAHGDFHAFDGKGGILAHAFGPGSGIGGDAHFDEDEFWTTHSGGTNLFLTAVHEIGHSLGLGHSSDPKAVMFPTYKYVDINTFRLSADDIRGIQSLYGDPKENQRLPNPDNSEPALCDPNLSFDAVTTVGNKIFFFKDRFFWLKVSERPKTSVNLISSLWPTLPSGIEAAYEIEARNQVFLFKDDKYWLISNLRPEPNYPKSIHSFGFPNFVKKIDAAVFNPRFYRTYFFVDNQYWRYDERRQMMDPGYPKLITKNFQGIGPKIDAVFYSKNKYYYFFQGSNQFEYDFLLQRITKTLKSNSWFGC
T2 sequence (P78536 215-824): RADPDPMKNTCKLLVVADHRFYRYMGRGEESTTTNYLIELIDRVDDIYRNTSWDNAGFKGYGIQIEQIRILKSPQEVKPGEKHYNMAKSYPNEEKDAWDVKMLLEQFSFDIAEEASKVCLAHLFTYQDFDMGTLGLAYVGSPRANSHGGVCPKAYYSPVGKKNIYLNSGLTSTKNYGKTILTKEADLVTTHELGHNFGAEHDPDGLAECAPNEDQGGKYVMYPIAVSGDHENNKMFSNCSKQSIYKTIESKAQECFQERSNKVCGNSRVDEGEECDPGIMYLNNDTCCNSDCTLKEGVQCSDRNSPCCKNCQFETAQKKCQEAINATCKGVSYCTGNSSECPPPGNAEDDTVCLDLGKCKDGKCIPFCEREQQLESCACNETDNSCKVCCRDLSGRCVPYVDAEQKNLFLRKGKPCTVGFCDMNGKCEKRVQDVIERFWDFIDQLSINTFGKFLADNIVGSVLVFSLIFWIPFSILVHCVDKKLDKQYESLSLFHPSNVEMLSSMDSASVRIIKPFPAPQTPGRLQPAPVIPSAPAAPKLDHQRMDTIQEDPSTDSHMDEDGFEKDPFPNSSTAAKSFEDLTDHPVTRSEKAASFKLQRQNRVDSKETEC
T1 sequence (P08254 100-477): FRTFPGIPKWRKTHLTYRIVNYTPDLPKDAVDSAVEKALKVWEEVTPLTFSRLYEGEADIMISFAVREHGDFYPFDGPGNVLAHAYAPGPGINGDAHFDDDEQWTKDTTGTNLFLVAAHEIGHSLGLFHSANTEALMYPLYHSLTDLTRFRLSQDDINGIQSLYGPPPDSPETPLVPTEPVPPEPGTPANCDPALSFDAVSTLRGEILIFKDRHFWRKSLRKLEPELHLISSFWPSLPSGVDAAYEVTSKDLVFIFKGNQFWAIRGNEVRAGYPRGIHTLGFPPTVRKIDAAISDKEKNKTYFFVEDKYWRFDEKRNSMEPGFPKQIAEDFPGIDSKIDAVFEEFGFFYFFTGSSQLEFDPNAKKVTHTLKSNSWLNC

In the case of `CC(C)[C@H](C(=O)NO)N1C(=O)N[C@@H](CCc2ccc(-c3ccccc3)cc2)C1=O` (stereo in doubt) [Example 5, 2-[4-(2-Biphenyl-4-yl-ethyl)-2,5-dioxo-imidazolidin-1-yl]-N-hydroxy-3-methyl-butyramide], at recombinant human MMP-3, the “Ki(MMP-3)/Ki(MMP-12)” value came to 71. Moreover, the “Ki(TACE)/Ki(MMP-12)” value at recombinant human TACE is listed as more than 4500.
Turning to `CC(C)[C@H](C(=O)NO)N1C(=O)N[C@@H](COCc2ccc(Br)cc2)C1=O` (stereo in doubt) [Example 13i, 2-[4-(4-Bromobenzyloxymethyl)-2,5-dioxo-imidazolidin-1-yl]-N-hydroxy-3-methyl-butyramide], the “Ki(MMP-3)/Ki(MMP-12)” value on recombinant human MMP-3 was more than 190. For the same molecule, the “Ki(TACE)/Ki(MMP-12)” value at recombinant human TACE is reported as more than 190.
Consider `CC(C)[C@H](C(=O)NO)N1C(=O)N[C@@H](CCc2ccc(Oc3ccccc3)cc2)C1=O` (stereo in doubt) [Example 26, 2-{2,5-Dioxo-4-[2-(4-phenoxyphenyl)-ethyl]-imidazolidin-1-yl}-N-hydroxy-3-methyl-butyramide], for which the inhibitory constant (Ki) on recombinant human MMP-12 was not above 50 nM.
On to `CC(C)[C@H](C(=O)NO)N1C(=O)N[C@@H](CCc2ccccc2)C1=O` [Example 1], for which the “Ki(MMP-3)/Ki(MMP-12)” value at recombinant human MMP-3 came out at 140. Besides, the “Ki(TACE)/Ki(MMP-12)” value at recombinant human TACE turned out to be 380.
Take `CC(C)[C@H](C(=O)NO)N1C(=O)N[C@H](CCc2ccccc2)C1=O` [Example 7, 2-(2,5-Dioxo-4-phenethyl-imidazolidin-1-yl)-N-hydroxy-3-methyl-butyramide]: the “Ki(MMP-3)/Ki(MMP-12)” value at recombinant human MMP-3 stood at 53. In addition, the Ki at recombinant human MMP-12 fell in the range of 51 to 200 nM. For the same molecule, the “Ki(TACE)/Ki(MMP-12)” value at recombinant human TACE is listed as more than 80.
For the molecule `O=C(NO)[C@@H](Cc1ccccc1)N1C(=O)N[C@@H](CCc2ccccc2)C1=O` [Example 10, 2-(2,5-Dioxo-4-phenethyl-imidazolidin-1-yl)-N-hydroxy-3-phenhyl-propionamide], the “Ki(MMP-3)/Ki(MMP-12)” value at recombinant human MMP-3 came out at 34. In addition, the Ki at recombinant human MMP-12 is not above 50 nM. For the same molecule, the “Ki(TACE)/Ki(MMP-12)” value at recombinant human TACE was more than 150.
With `CC(C)(C)[C@H](C(=O)NO)N1C(=O)N[C@@H](CCc2ccccc2)C1=O` [Example 12, 2-(2,5-Dioxo-4-phenethyl-imidazolidin-1-yl)-N-hydroxy-3,3-dimethyl-butyramide], the “Ki(MMP-3)/Ki(MMP-12)” value at recombinant human MMP-3 is listed as 122. Also, at recombinant human TACE, the “Ki(TACE)/Ki(MMP-12)” value turned out to be 245.
As to `CC(C)[C@H](C(=O)NO)N1C(=O)N[C@@H](COCc2ccc(C(F)(F)F)cc2)C1=O` [Example 14, 2-[2,5-Dioxo-4-(4-trifluoromethyl-bezyloxymethyl)-imidazolidin-1-yl]-N-hydroxy-3-methyl-butyramide], at recombinant human MMP-3, the “Ki(MMP-3)/Ki(MMP-12)” value is on record as more than 500. The Ki on recombinant human MMP-12 is not above 50 nM. Further, the “Ki(TACE)/Ki(MMP-12)” value on recombinant human TACE was more than 500.
`CC(C)[C@H](C(=O)NO)N1C(=O)N[C@@H](COCc2cccc(F)c2)C1=O` [Example 15, 2-[4-(3-Fluorobenzyloxymethyl)-2,5-dioxo-imidazolidin-1-yl]-N-hydroxy-3-methyl-butyramide]: the “Ki(MMP-3)/Ki(MMP-12)” value on recombinant human MMP-3 amounted to 120. Besides, the Ki at recombinant human MMP-12 is 51 to 200 nM. In addition, the “Ki(TACE)/Ki(MMP-12)” value at recombinant human TACE is recorded as more than 700.
As to `CC(C)[C@H](C(=O)NO)N1C(=O)N[C@@H](CCCCNC(=O)c2ccccc2)C1=O` [Example 25h], the Ki on recombinant human MMP-12 was more than 200 nM.
As for `Cc1ccccc1CCC1NC(=O)N(C(C(=O)NO)C(C)C)C1=O` (centres unmarked) [Example 28, 2-[2,5-Dioxo-4-(2-o-tolylethyl)-imidazolidin-1-yl]-N-hydroxy-3-methyl-butyramide], the Ki at recombinant human MMP-12 was not above 50 nM.
Regarding `Cc1cccc(CCC2NC(=O)N(C(C(=O)NO)C(C)C)C2=O)c1` (centres unmarked) [Example 29, 2-[2,5-Dioxo-4-(2-m-tolylethyl)-imidazolidin-1-yl]-N-hydroxy-3-methyl-butyramide], the Ki at recombinant human MMP-12 is not above 50 nM.
On the same count and under the same terms, the figure for `COc1ccccc1CCC1NC(=O)N(C(C(=O)NO)C(C)C)C1=O` (centres unmarked) [Example 31, N-Hydroxy-2-{4-[2-(2-methoxyphenyl)-ethyl]-2,5-dioxo-imidazolidin-1-yl}-3-methyl-butyramide] is not above 50 nM.
As to `COc1cccc(CCC2NC(=O)N(C(C(=O)NO)C(C)C)C2=O)c1` (centres unmarked) [Example 32, N-Hydroxy-2-{4-[2-(3-methoxyphenyl)-ethyl]-2,5-dioxoimidazolidin-1-yl}-3-methylbutyramide], the “Ki(MMP-3)/Ki(MMP-12)” value at recombinant human MMP-3 was more than 200. The “Ki(TACE)/Ki(MMP-12)” value at recombinant human TACE came to 140.
As for `COc1ccc(CC[C@@H]2NC(=O)N([C@@H](C(=O)NO)C(C)C)C2=O)cc1` [Example 33, N-Hydroxy-2-{4-[2-(4-methoxyphenyl)-ethyl]-2,5-dioxoimidazolidin-1-yl}-3-methylbutyramide], the Ki at recombinant human MMP-12 was not above 50 nM.
For the molecule `CCc1ccc(CC[C@@H]2NC(=O)N([C@@H](C(=O)NO)C(C)C)C2=O)cc1` [Example 34, 2-{4-[2-(4-Ethylphenyl)-ethyl]-2,5-dioxoimidazolidin-1-yl}-N-hydroxy-3-methyl-butyramide], on recombinant human MMP-12, the Ki was not above 50 nM.
On to `CC(C)[C@H](C(=O)NO)N1C(=O)N[C@@H](CCc2cccc(F)c2)C1=O` [Example 37, 2-{4-[2-(3-Fluoro-phenyl)-ethyl]-2,5-dioxoimidazolidin-1-yl}-N-hydroxy-3-methylbutyramide], for which the Ki on recombinant human MMP-12 is not above 50 nM.
Same read-out and setting: in the case of `CC(C)[C@H](C(=O)NO)N1C(=O)N[C@@H](CCc2ccc(Cc3ccccc3)cc2)C1=O` [Example 39, 2-{4-[2-(4-Benzylphenyl)-ethyl]-2,5-dioxoimidazolidin-1-yl}-N-hydroxy-3-methylbutyramide] it was not above 50 nM; in that of `CC(C)[C@H](C(=O)NO)N1C(=O)N[C@@H](CCc2ccc(C(=O)Cc3ccccc3)cc2)C1=O` [Example 40, 2-{2,5-Dioxo-4-[2-(4-phenylacetyl-phenyl)-ethyl]-imidazolidin-1-yl}-N-hydroxy-3-methylbutyramide], not above 50 nM.

What is called Ki is a dissociation constant, usually derived from enzyme kinetics or from competition with a known ligand.

The values are drawn from patent US8338471B2, “(2,5-dioxoimidazolidin-i-yl)-n-hydroxy-acetamides as metalloproteinase inhibitors” (Medivir AB, priority 2005, dated 2012).
